One may read the KD as a measure of binding affinity in units of concentration.

The values that follow come from paper PMC9262584 (2022).

Holding throughout (assay): ITC
Common to all, as to conditions: 50 mM KCl, 5 mM MgCl2 (RNA wash buffer); 50 mM Bis-Tris pH 6.1; individual ITC conditions in SI Figures S11/S12

Assay [1] concerns pilM^75 (RNA, riboswitch) GAUAUCGACAAUACUAAACCAUCCGCGAGGGUGGGACGGAAAGCCUACAGGGUCUCUCUGAGACAGCCGGGAUGC
Assay [2] concerns pilM^14-75 (RNA, riboswitch) GCUAAACCAUCCGCGAGGGUGGGACGGAAAGCCUACAGGGUCUCUCUGAGACAGCCGGGAUGC
The test system of assay [3] is pilM^77 (RNA, riboswitch) GAUAUCGACAAUACUAAACCAUCCGCGAGGGUGGGACGGAAAGCCUACAGGGUCUCUCUGAGACAGCCGGGAUGCCG
Assay [4] has as its system pilM^79 (RNA, riboswitch) GAUAUCGACAAUACUAAACCAUCCGCGAGGGUGGGACGGAAAGCCUACAGGGUCUCUCUGAGACAGCCGGGAUGCCGAA
Assay [5] deals with pilM^80 (RNA, riboswitch) GAUAUCGACAAUACUAAACCAUCCGCGAGGGUGGGACGGAAAGCCUACAGGGUCUCUCUGAGACAGCCGGGAUGCCGAAA
Assay [6] has as its system pilM^82 (RNA, riboswitch) GAUAUCGACAAUACUAAACCAUCCGCGAGGGUGGGACGGAAAGCCUACAGGGUCUCUCUGAGACAGCCGGGAUGCCGAAAUA
Assay [7] concerns pilM^83 (RNA, riboswitch) GAUAUCGACAAUACUAAACCAUCCGCGAGGGUGGGACGGAAAGCCUACAGGGUCUCUCUGAGACAGCCGGGAUGCCGAAAUAU
Assay [8] concerns pilM^84 (RNA, riboswitch) GAUAUCGACAAUACUAAACCAUCCGCGAGGGUGGGACGGAAAGCCUACAGGGUCUCUCUGAGACAGCCGGGAUGCCGAAAUAUC
The test system of assay [9] is pilM^88 (RNA, riboswitch) GAUAUCGACAAUACUAAACCAUCCGCGAGGGUGGGACGGAAAGCCUACAGGGUCUCUCUGAGACAGCCGGGAUGCCGAAAUAUCACAA
Assay [10] relates to pilM^91 (RNA, riboswitch) GAUAUCGACAAUACUAAACCAUCCGCGAGGGUGGGACGGAAAGCCUACAGGGUCUCUCUGAGACAGCCGGGAUGCCGAAAUAUCACAAUUC
In assay [11] the test system is pilM^93 (RNA, riboswitch) GAUAUCGACAAUACUAAACCAUCCGCGAGGGUGGGACGGAAAGCCUACAGGGUCUCUCUGAGACAGCCGGGAUGCCGAAAUAUCACAAUUCGU
In assay [12] the test system is pilM^95 (RNA, riboswitch) GAUAUCGACAAUACUAAACCAUCCGCGAGGGUGGGACGGAAAGCCUACAGGGUCUCUCUGAGACAGCCGGGAUGCCGAAAUAUCACAAUUCGUGA
The subject of assay [13] is pilM^96 (RNA, riboswitch) GAUAUCGACAAUACUAAACCAUCCGCGAGGGUGGGACGGAAAGCCUACAGGGUCUCUCUGAGACAGCCGGGAUGCCGAAAUAUCACAAUUCGUGAU
In assay [14] the test system is pilM^97 (RNA, riboswitch) GAUAUCGACAAUACUAAACCAUCCGCGAGGGUGGGACGGAAAGCCUACAGGGUCUCUCUGAGACAGCCGGGAUGCCGAAAUAUCACAAUUCGUGAUG
In assay [15] the test system is pilM^99 (RNA, riboswitch) GAUAUCGACAAUACUAAACCAUCCGCGAGGGUGGGACGGAAAGCCUACAGGGUCUCUCUGAGACAGCCGGGAUGCCGAAAUAUCACAAUUCGUGAUGCU
In assay [16] the test system is pilM^100 (RNA, riboswitch) GAUAUCGACAAUACUAAACCAUCCGCGAGGGUGGGACGGAAAGCCUACAGGGUCUCUCUGAGACAGCCGGGAUGCCGAAAUAUCACAAUUCGUGAUGCUC
Assay [17] concerns pilM^101 (RNA, riboswitch) GAUAUCGACAAUACUAAACCAUCCGCGAGGGUGGGACGGAAAGCCUACAGGGUCUCUCUGAGACAGCCGGGAUGCCGAAAUAUCACAAUUCGUGAUGCUCG
Assay [18] has as its system pilM^102 (RNA, riboswitch) GAUAUCGACAAUACUAAACCAUCCGCGAGGGUGGGACGGAAAGCCUACAGGGUCUCUCUGAGACAGCCGGGAUGCCGAAAUAUCACAAUUCGUGAUGCUCGG
Assay [19] concerns pilM^103 (RNA, riboswitch) GAUAUCGACAAUACUAAACCAUCCGCGAGGGUGGGACGGAAAGCCUACAGGGUCUCUCUGAGACAGCCGGGAUGCCGAAAUAUCACAAUUCGUGAUGCUCGGU
Assay [20] concerns pilM^105 (RNA, riboswitch) GAUAUCGACAAUACUAAACCAUCCGCGAGGGUGGGACGGAAAGCCUACAGGGUCUCUCUGAGACAGCCGGGAUGCCGAAAUAUCACAAUUCGUGAUGCUCGGUCC
Assay [21] concerns pilM^106 (RNA, riboswitch) GAUAUCGACAAUACUAAACCAUCCGCGAGGGUGGGACGGAAAGCCUACAGGGUCUCUCUGAGACAGCCGGGAUGCCGAAAUAUCACAAUUCGUGAUGCUCGGUCCC
For assay [22], the system named is pilM^109 (RNA, riboswitch) GAUAUCGACAAUACUAAACCAUCCGCGAGGGUGGGACGGAAAGCCUACAGGGUCUCUCUGAGACAGCCGGGAUGCCGAAAUAUCACAAUUCGUGAUGCUCGGUCCCGGC

`Nc1nc2c(ncn2[C@@H]2O[C@@H]3COP(=O)(O)O[C@H]4[C@@H](O)[C@H](n5cnc6c(N)ncnc65)O[C@@H]4COP(=O)(O)O[C@H]3[C@H]2O)c(=O)[nH]1`: the KD in assay [1] is > >100 μM; in assay [2], 0.012 ± 0.005 mM; in assay [3] it was 0.019 ± 0.019 mM; in assay [4] it was 0.017 ± 0.011 mM; in [5] it was 0.0085 ± 0.0014 mM; in [6], 0.00212 ± 0.00017 mM. Besides, the KD in [7] was determined as 0.00167 ± 9e-05 mM; in [8], 0.00044 ± 6e-05 mM; in assay [9] it was 0.00025 ± 4e-05 mM; in assay [10], 0.00032 ± 5e-05 mM; in assay [11], 0.00038 ± 6e-05 mM; in assay [12], 0.0016 ± 0.0006 mM. Moreover, the dissociation constant KD is 0.0029 ± 0.0015 mM in assay [13]; 0.0016 ± 0.0007 mM in assay [14]; 0.00025 ± 4e-05 mM in assay [15]; 0.0005 ± 0.0003 mM in assay [16]; 0.0013 ± 0.0005 mM in assay [17]; > >100 μM in [18]. Besides, the KD in [19], in assay [20], in [21] and in assay [22] was > >100 μM each time.
